Laboratory results from BindingDB's records for doi:10.1021/acsmedchemlett.0c00047 (Centre of Experimental Medicine, 2020).

Experiment: Inhibition of SERCA1 in rat INS-1E cells assessed as reduction in cell viability incubated for 24 hrs by MTT assay

Row | Structure (SMILES) | IC50 [µM]
1 | CC1(C)Oc2cc3oc(-c4cc(O)cc(O)c4)cc3cc2CC1O (stereo not given) [Moracin P] | 109
2 | Cc1cc2c3c(c1)-c1c(O)cc(-c4cc5ccc(O)cc5o4)cc1O[C@@]3(c1ccc(O)cc1O)Oc1cc(O)ccc1-2 | 18.2
3 | CC(C)=CCc1c(-c2ccc(O)cc2O)oc2c3c(cc(O)c2c1=O)OC(C)(C)C=C3 [Morusin, 3] | 28.7
4 | COc1cc(O)c([C@@H]2CC(=O)c3c(O)cc(O)cc3O2)cc1C/C=C(\C)CCC=C(C)C | 64.8
5 | CC(C)(O)C1Cc2cc3cc(-c4cc(O)cc(O)c4)oc3cc2O1 (stereo not given) [moracin O] | 111
